Data from PubChem BioAssay (NCI).
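Interpolation was linear, between the two tested concentrations surrounding the appropriate level; five concentrations were tested over 48 hours in 96-well plates. GI50 marks 50% less growth. TGI denotes the concentration required for complete inhibition of growth.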

Experiments:
Experiment in all cases: inhibition of tumour cell growth, NCI panel, 48 h
LOX IMVI melanoma = test system: LOX IMVI melanoma
MOLT-4 leukemia = test system: MOLT-4 leukemia
NCI/ADR-RES ovarian = test system: NCI/ADR-RES ovarian
SK-MEL-28 melanoma = test system: SK-MEL-28 melanoma
HCC-2998 colon = test system: HCC-2998 colon
RPMI-8226 leukemia = test system: RPMI-8226 leukemia
CAKI-1 renal = test system: CAKI-1 renal
SN12C renal = test system: SN12C renal
UO-31 renal = test system: UO-31 renal
SNB-75 CNS = test system: SNB-75 CNS
T-47D breast = test system: T-47D breast
MCF7 breast = test system: MCF7 breast
UACC-62 melanoma = test system: UACC-62 melanoma
KM12 colon = test system: KM12 colon
SF-295 CNS = test system: SF-295 CNS
SNB-19 CNS = test system: SNB-19 CNS
NCI-H23 lung = test system: NCI-H23 lung
DU-145 prostate = test system: DU-145 prostate
OVCAR-4 ovarian = test system: OVCAR-4 ovarian
K-562 leukemia = test system: K-562 leukemia
HOP-62 NSCLC = test system: HOP-62 NSCLC
SF-539 CNS = test system: SF-539 CNS
MDA-MB-231 breast = test system: MDA-MB-231 breast
OVCAR-3 ovarian = test system: OVCAR-3 ovarian
SK-MEL-5 melanoma = test system: SK-MEL-5 melanoma
NCI-H460 lung = test system: NCI-H460 lung
TK-10 renal = test system: TK-10 renal
HCT-15 colon = test system: HCT-15 colon
A549 NSCLC = test system: A549 NSCLC
PC-3 prostate = test system: PC-3 prostate
U251 CNS = test system: U251 CNS
MDA-MB-435 = test system: MDA-MB-435
HOP-92 NSCLC = test system: HOP-92 NSCLC
SK-OV-3 ovarian = test system: SK-OV-3 ovarian
786-0 renal = test system: 786-0 renal
M14 melanoma = test system: M14 melanoma
SK-MEL-2 melanoma = test system: SK-MEL-2 melanoma
ACHN renal = test system: ACHN renal
HCT-116 colon = test system: HCT-116 colon
HT29 colon = test system: HT29 colon
SF-268 CNS = test system: SF-268 CNS
CCRF-CEM leukemia = test system: CCRF-CEM leukemia
SW-620 colon = test system: SW-620 colon
NCI-H522 lung = test system: NCI-H522 lung
EKVX NSCLC = test system: EKVX NSCLC
BT-549 breast = test system: BT-549 breast
OVCAR-8 ovarian = test system: OVCAR-8 ovarian
MALME-3M melanoma = test system: MALME-3M melanoma
UACC-257 melanoma = test system: UACC-257 melanoma
OVCAR-5 ovarian = test system: OVCAR-5 ovarian
A498 renal = test system: A498 renal
COLO 205 colon = test system: COLO 205 colon

`CCOP(=O)(OCC)C(NC(c1ccccc1)c1ccccc1)c1ccc(C(C)C)cc1` (configuration not stated) was tested, and the GI50 (LOX IMVI melanoma) was 4.33 µM, the TGI (LOX IMVI melanoma) was 16 µM and the GI50 (MOLT-4 leukemia) was 1.71 µM. The TGI (MOLT-4 leukemia) was 4.25 µM, the GI50 (NCI/ADR-RES ovarian) was 2.14 µM and the TGI (NCI/ADR-RES ovarian) was 7.52 µM. The GI50 (SK-MEL-28 melanoma) was 11.9 µM, the TGI (SK-MEL-28 melanoma) was 52 µM and the GI50 (HCC-2998 colon) was 5.49 µM. It also gave a TGI (HCC-2998 colon) of 18.2 µM, a GI50 (RPMI-8226 leukemia) of 2.65 µM and a TGI (RPMI-8226 leukemia) of 9.99 µM. For the same compound, the GI50 (CAKI-1 renal) was 3.23 µM, the TGI (CAKI-1 renal) was 13.1 µM and the GI50 (SN12C renal) was 4.65 µM. The TGI (SN12C renal) was 16.8 µM, the GI50 (UO-31 renal) was 7.45 µM and the TGI (UO-31 renal) was 28.9 µM. It also gave a GI50 (SNB-75 CNS) of 5.28 µM, a TGI (SNB-75 CNS) of 25.9 µM and a GI50 (T-47D breast) of 6.65 µM. It also gave a TGI (T-47D breast) of 41.3 µM, a GI50 (MCF7 breast) of 3.06 µM and a TGI (MCF7 breast) of 11.4 µM. The GI50 (UACC-62 melanoma) was 10.4 µM, the TGI (UACC-62 melanoma) was 22.9 µM and the GI50 (KM12 colon) was 4.8 µM. It also gave a TGI (KM12 colon) of 17.2 µM, a GI50 (SF-295 CNS) of 2.92 µM and a TGI (SF-295 CNS) of 11.7 µM. The GI50 (SNB-19 CNS) was 26.6 µM, the TGI (SNB-19 CNS) was > 100 µM and the GI50 (NCI-H23 lung) was 6.38 µM. It also gave a TGI (NCI-H23 lung) of 20.7 µM, a GI50 (DU-145 prostate) of 8.41 µM and a TGI (DU-145 prostate) of 25.5 µM. The GI50 (OVCAR-4 ovarian) was 2.57 µM, the TGI (OVCAR-4 ovarian) was 64.8 µM and the GI50 (K-562 leukemia) was 3.48 µM. It also gave a TGI (K-562 leukemia) of 14.8 µM, a GI50 (HOP-62 NSCLC) of 6.08 µM and a TGI (HOP-62 NSCLC) of 18.8 µM. The GI50 (SF-539 CNS) was 13.1 µM, the TGI (SF-539 CNS) was 30 µM and the GI50 (MDA-MB-231 breast) was 6.12 µM. The TGI (MDA-MB-231 breast) was 20.8 µM, the GI50 (OVCAR-3 ovarian) was 1.87 µM and the TGI (OVCAR-3 ovarian) was 6.15 µM. The GI50 (SK-MEL-5 melanoma) was 3.35 µM, the TGI (SK-MEL-5 melanoma) was 7.86 µM and the GI50 (NCI-H460 lung) was 5.91 µM. For the same compound, the TGI (NCI-H460 lung) was > 100 µM, the GI50 (TK-10 renal) was 3.32 µM and the TGI (TK-10 renal) was 14.4 µM. The GI50 (HCT-15 colon) was 3.22 µM, the TGI (HCT-15 colon) was 13.1 µM and the GI50 (A549 NSCLC) was 4.84 µM. The TGI (A549 NSCLC) was 23.2 µM, the GI50 (PC-3 prostate) was 2.9 µM and the TGI (PC-3 prostate) was 13.3 µM. For the same compound, the GI50 (U251 CNS) was 3.63 µM, the TGI (U251 CNS) was 13.9 µM and the GI50 (MDA-MB-435) was 3.71 µM. The TGI (MDA-MB-435) was 11.6 µM, the GI50 (HOP-92 NSCLC) was 1.97 µM and the TGI (HOP-92 NSCLC) was 11 µM. For the same compound, the GI50 (SK-OV-3 ovarian) was 13.2 µM, the TGI (SK-OV-3 ovarian) was 34.7 µM and the GI50 (786-0 renal) was 5.6 µM. The TGI (786-0 renal) was 18.9 µM, the GI50 (M14 melanoma) was 2.13 µM and the TGI (M14 melanoma) was 4.99 µM. For the same compound, the GI50 (SK-MEL-2 melanoma) was 19.2 µM, the TGI (SK-MEL-2 melanoma) was 72.7 µM and the GI50 (ACHN renal) was 2.64 µM. For the same compound, the TGI (ACHN renal) was 7.27 µM, the GI50 (HCT-116 colon) was 3.08 µM and the TGI (HCT-116 colon) was 11.3 µM. The GI50 (HT29 colon) was 6.27 µM, the TGI (HT29 colon) was 42.1 µM and the GI50 (SF-268 CNS) was 7.93 µM. The TGI (SF-268 CNS) was 69.5 µM, the GI50 (CCRF-CEM leukemia) was 3.39 µM and the TGI (CCRF-CEM leukemia) was 25.5 µM. For the same compound, the GI50 (SW-620 colon) was 4.08 µM, the TGI (SW-620 colon) was 20.3 µM and the GI50 (NCI-H522 lung) was 6.98 µM. For the same compound, the TGI (NCI-H522 lung) was 29.6 µM, the GI50 (EKVX NSCLC) was 6.01 µM and the TGI (EKVX NSCLC) was 20.4 µM. It also gave a GI50 (BT-549 breast) of 6.8 µM, a TGI (BT-549 breast) of 28.9 µM and a GI50 (OVCAR-8 ovarian) of 5.04 µM. For the same compound, the TGI (OVCAR-8 ovarian) was 19.5 µM.
`CN1/C(=C/C=C/c2n(Cc3ccc4ccccc4c3)c(Cl)c(Cl)[n+]2Cc2ccc3ccccc3c2)Oc2ccccc21` gave a GI50 (SK-MEL-28 melanoma) of 0.505 µM, a TGI (SK-MEL-28 melanoma) of 1.75 µM and a GI50 (MALME-3M melanoma) of 0.201 µM. It also gave a TGI (MALME-3M melanoma) of 0.625 µM, a GI50 (CAKI-1 renal) of 0.553 µM and a TGI (CAKI-1 renal) of 1.83 µM. For the same compound, the GI50 (UACC-257 melanoma) was 0.338 µM, the TGI (UACC-257 melanoma) was 1.44 µM and the GI50 (UO-31 renal) was 1.35 µM. It also gave a TGI (UO-31 renal) of 2.65 µM, a GI50 (SNB-75 CNS) of 0.176 µM and a TGI (SNB-75 CNS) of 0.731 µM. The GI50 (OVCAR-5 ovarian) was 0.373 µM, the TGI (OVCAR-5 ovarian) was 1.59 µM and the GI50 (DU-145 prostate) was 0.403 µM. The TGI (DU-145 prostate) was 1.54 µM, the GI50 (HCT-15 colon) was 1.24 µM and the TGI (HCT-15 colon) was 2.68 µM. The GI50 (MDA-MB-435) was 0.327 µM, the TGI (MDA-MB-435) was 1.09 µM and the GI50 (HOP-92 NSCLC) was 0.212 µM. The TGI (HOP-92 NSCLC) was 0.685 µM, the GI50 (ACHN renal) was 0.494 µM and the TGI (ACHN renal) was 1.67 µM. The GI50 (HCT-116 colon) was 0.255 µM, the TGI (HCT-116 colon) was 1.08 µM and the GI50 (SW-620 colon) was 0.294 µM. The TGI (SW-620 colon) was 1.15 µM, the GI50 (A498 renal) was 0.198 µM and the TGI (A498 renal) was 0.756 µM.
`Cc1nccn1CC1CCc2c(c3ccccc3n2C)C1=O` (configuration not stated) gave a GI50 (SN12C renal) of 87.9 µM, a GI50 (UACC-257 melanoma) of 42.3 µM and a TGI (UACC-257 melanoma) of 64.3 µM. For the same compound, the GI50 (UO-31 renal) was 78.5 µM, the GI50 (SNB-75 CNS) was 56.5 µM and the GI50 (T-47D breast) was 71.1 µM. For the same compound, the GI50 (OVCAR-5 ovarian) was 95.3 µM, the GI50 (SF-295 CNS) was 39.1 µM and the TGI (SF-295 CNS) was 60.9 µM. The GI50 (COLO 205 colon) was 78.7 µM, the GI50 (SF-539 CNS) was 73.7 µM and the GI50 (OVCAR-3 ovarian) was 90.3 µM. For the same compound, the GI50 (SK-MEL-5 melanoma) was 66.8 µM, the GI50 (NCI-H460 lung) was 45.7 µM and the TGI (NCI-H460 lung) was 68.1 µM. The GI50 (U251 CNS) was 81 µM, the GI50 (MDA-MB-435) was 90.2 µM and the GI50 (786-0 renal) was 78.8 µM. For the same compound, the GI50 (HCT-116 colon) was 65.6 µM, the GI50 (HT29 colon) was 27.9 µM and the TGI (HT29 colon) was 49.2 µM. The GI50 (BT-549 breast) was 77.3 µM and the GI50 (OVCAR-8 ovarian) was 49.8 µM.
